This data set can be described thus: RP, Thermo Scientific Acclaim RSLC 120 C18, 100 × 2.1 mm, 2.2 µm, 30 °C, 0.2 mL/min, estimated dead time 1.1 min; A: 90% water + 10% methanol + 0.01% formic acid + 5 mM ammonium formate, pH 3.61; B: methanol + 0.01% formic acid + 5 mM ammonium formate, pH 3.61; gradient (min/%B) 0/1 1/1 2/39 13/99.9 15/99.9 15.1/1 20.1/1. The following applies: stereoisomer not certain.
`CCCNC(C)C(=O)Nc1ccccc1C` (stereo unspecified) [Prilocaine]: the LC retention time is 4.69 min.
As to `COc1cc(NC(C)CCCN)c2ncccc2c1` (stereo unspecified) [Primaquine], the LC retention time was 6.82 min.
On to `CCC1(c2ccccc2)C(=O)NCNC1=O` [Primidone], for which the LC retention time is 5.29 min.
Then `CCCC(C(=O)OCCN(CC)CC)(c1ccccc1)c1ccccc1` [Proadifen], with 9.41 min; and `CCN(CC)CCNC(=O)c1ccc(N)cc1` [Procainamide], with 2.83 min.
As to `CCN(CC)CCOC(=O)c1ccc(N)cc1` [Procaine], the LC retention time is 3.21 min.
Under `CCCN(CCOc1c(Cl)cc(Cl)cc1Cl)C(=O)n1ccnc1` [Prochloraz] stands 11.2 min; under `CN1CCN(CCCN2c3ccccc3Sc3ccc(Cl)cc32)CC1` [Prochlorperazine], 9.89 min; under `OC(CCN1CCCC1)(c1ccccc1)C1CCCCC1` (stereo unspecified) [Procyclidine], 7.8 min.
Under `CC12CC1(C)C(=O)N(c1cc(Cl)cc(Cl)c1)C2=O` (stereo unspecified) [Procymidone] stands 10.2 min; under `CCCSP(=O)(OCC)Oc1ccc(Br)cc1Cl` (stereo unspecified) [Profenophos], 12 min; under `CC(=O)C1CCC2C3CCC4=CC(=O)CCC4(C)C3CCC12C` (stereo unspecified) [Progesterone], 11.2 min.
Under `CC(C)N=C(N)N=C(N)Nc1ccc(Cl)cc1` [Proguanil] stands 6.98 min; under `CCC(=O)C1C(=O)CC(C(=O)O)CC1=O` (stereo unspecified) [Prohexadione], 5.63 min.
Turning to `CCCC(Cc1ccccc1)N1CCCC1` (stereo unspecified) [Prolintane], the LC retention time was 5.56 min.
With `CCC(=O)c1ccc2c(c1)N(CCCN(C)C)c1ccccc1S2` [Promazine-Propionyl], the LC retention time was 8.49 min.
Under `CN(C)CC(CN1c2ccccc2Sc2ccccc21)N(C)C` (stereo unspecified) [Promazine-amino] stands 8.54 min; under `CN(C)CCCN1c2ccccc2Sc2ccccc21` [Promazine], 7.69 min.
Consider `CNC(=O)Oc1cc(C)cc(C(C)C)c1` [Promecarb], for which the LC retention time is 9.51 min.
In the case of `CC(CN1c2ccccc2Sc2ccccc21)N(C)C` (stereo unspecified) [Promethazine], the LC retention time was 7.53 min.
Under `COc1nc(NC(C)C)nc(NC(C)C)n1` [Prometon] stands 8.86 min.
Under `CSc1nc(NC(C)C)nc(NC(C)C)n1` [Prometryn] stands 10.1 min; under `CC(C)N(C(=O)CS(=O)(=O)O)c1ccccc1` [Propachlor-ESA], 5.46 min.
Then `CC(C)N(C(=O)C(=O)O)c1ccccc1` [Propachlor-OXA], with 5.13 min; and `CC(C)N(C(=O)CCl)c1ccccc1` [Propachlor], with 8.25 min.
Consider `NCC(O)COc1ccccc1C(=O)CCc1ccccc1` (stereo unspecified) [Propafenone-N-Desmethyl], for which the LC retention time is 7.09 min.
Under `CCCNCC(O)COc1ccccc1C(=O)CCc1ccccc1` (stereo unspecified) [Propafenone] stands 7.81 min.
On to `CCCOC(=O)NCCCN(C)C` [Propamocarb], for which the LC retention time was 3.5 min.
For the molecule `CCC(=O)Nc1ccc(Cl)c(Cl)c1` [Propanil], the LC retention time was 9.38 min.
In the case of `CC(C)[N+](C)(CCOC(=O)C1c2ccccc2Oc2ccccc21)C(C)C` [Propantheline (I+)], the LC retention time is 7.35 min.
Turning to `CCCOP(=O)(OCCC)Oc1ccc(SC)cc1` [Propaphos], the LC retention time was 10.8 min.
Under `CC(C)=NOCCOC(=O)C(C)Oc1ccc(Oc2cnc3cc(Cl)ccc3n2)cc1` (stereo unspecified) [Propaquizafop] stands 12.3 min.
`C#CCOS(=O)OC1CCCCC1Oc1ccc(C(C)(C)C)cc1` (stereo unspecified) [Propargite]: the LC retention time was 12.8 min.
Under `CC(C)Nc1nc(NC(C)C)[nH]c(=O)n1` [Propazine-2-hydroxy (Prometon-Hydroxy)] stands 5.96 min; under `CC(C)Nc1nc(Cl)nc(NC(C)C)n1` [Propazine], 9.16 min.
For the molecule `CCNP(=S)(OC)OC(C)=CC(=O)OC(C)C` (stereo unspecified) [Propetamphos], the LC retention time was 9.79 min.
Then `CC(C)OC(=O)Nc1ccccc1` [Propham], with 8.11 min; and `CCCC1COC(Cn2cncn2)(c2ccc(Cl)cc2Cl)O1` (stereo unspecified) [Propiconazole], with 11 min.
Then `CCCOc1ccc(C(=O)CCN2CCCCC2)cc1` [Propipocaine], with 6.24 min.
Take `CCCOC(C(=O)OC1CCN(C)CC1)(c1ccccc1)c1ccccc1` [Propiverine]: the LC retention time was 9.36 min.
Under `CNC(=O)Oc1ccccc1OC(C)C` [Propoxur] stands 6.94 min.
Then `CCCOc1nn(C(=O)NS(=O)(=O)c2ccccc2C(=O)OC)c(=O)n1C` [Propoxycarbazone], with 5.73 min.
Under `CCCOc1ccc(S(=O)(=O)N2CCN(CC)CC2)cc1-c1nc(=S)c2c([nH]1)c(CCC)nn2C` [Propoxyphenyl Thiohomosidenafil] stands 10.5 min; under `CCCOC(=O)c1ccc(O)cc1` [Propylparaben], 8.36 min.
Turning to `CCCc1cc(=O)[nH]c(=S)[nH]1` [Propylthiouracil], the LC retention time was 4.51 min.
Under `Cc1c(C(C)C)c(=O)n(-c2ccccc2)n1C` [Propyphenazone] stands 7.23 min; under `C#CC(C)(C)NC(=O)c1cc(Cl)cc(Cl)c1` [Propyzamide (Pronamide)], 9.69 min.
Under `Cc1ccc2c(-c3ccccc3)nc(=O)n(C(C)C)c2c1` [Proquazone] stands 9.61 min; under `CCCOc1nc2ccc(I)cc2c(=O)n1CCC` [Proquinazid], 13.3 min.
Under `CCCN(CCC)C(=O)SCc1ccccc1` [Prosulfocarb] stands 11.9 min.
Consider `COc1nc(C)nc(NC(=O)NS(=O)(=O)c2ccccc2CCC(F)(F)F)n1` [Prosulfuron], for which the LC retention time was 8.57 min.
Under `OC(Cc1ccccc1Cl)(Cn1cncn1)C1(Cl)CC1` (stereo unspecified) [Prothioconazole-desethio] stands 10.5 min; under `OC(Cc1ccccc1Cl)(Cn1[nH]cnc1=S)C1(Cl)CC1` (stereo unspecified) [Prothioconazole], 11.2 min.
Then `CN(C)CCCN1c2ccccc2Sc2cccnc21` [Prothipendyl], with 7.21 min; and `CCCc1cc(C(N)=S)ccn1` [Protionamide], with 6.36 min.
Consider `CNCCCC1c2ccccc2C=Cc2ccccc21` [Protriptyline], for which the LC retention time was 7.99 min.
Under `CC(O)Cn1cnc2c1c(=O)n(C)c(=O)n2C` (stereo unspecified) [Proxyphylline] stands 4.34 min; under `CN(C)CCc1c[nH]c2cccc(O)c12` [Psilocin], 3.29 min; under `CC1=NNC(=O)N(N=Cc2cccnc2)C1` [Pymetrozine], 4.01 min.
Then `COC(=O)N(OC)c1ccccc1COc1ccn(-c2ccc(Cl)cc2)n1` [Pyraclostrobin], with 11.2 min; and `COC1(C)CC(c2ccccc2)c2c(c3ccccc3oc2=O)O1` (stereo unspecified) [Pyranocoumarin], with 11.1 min.
